Test results: patent US10745365B2, “Luminogenic and fluorogenic compounds and methods to detect molecules or conditions” (Promega Corporation, priority 2005, dated 2020)

Experiments:
[1] = test system: thermostable luciferase (Luc 146-1H2); test: Light emission of thermostable luciferase with luciferin derivatives; format: biochemical
Procedure: This stock was used to produce enzyme stock solution having of 200 μg/ml enzyme solution in 1 mg/ml BSA, 200 mM HEPES buffer, pH 8.0, 20 mM MgCl2.
Solutions were made using a 1 M DTT solution, pH adjusted to 8.0, a 20 mM Coenzyme A solution in water (both described in examples above), a 100 mM ATP solution and water to create the following solutions: Sol′ A, 100 μM ATP; Sol′B, 100 μM ATP, 4 mM Coenzyme A; Sol′n C, 100 μM ATP, 400 mM DTT, and; Sol′n D, 100 μM ATP, 4 mM Coenzyme A and 400 mM DTT.
(§1) After assembly, the reactions were initiated by addition of 25 μl of the thermostable luciferase stock solution above and mixing the tube contents. A 50 μl sample was immediately removed and placed in a luminometer tube and the light read and the tube then replaced in a tube rack at room temperature. While the light reading was being taken, a 5 μl sample of the remaining reaction (which was kept at room temperature) was diluted into 495 μl of 50 mM BisTris, pH 6.5, 1 mg/ml BSA, 1 mM EDTA prechilled to 4° C. and the tube mixed and placed on ice. The light produced by the samples in the luminometer tubes were re-read at 20, 40, 60, 90 and 120 minutes post enzyme addition. Additional 5 μl samples were taken and diluted as above at 60 and 120 minutes post enzyme addition. Once all these readings and samples were taken, 50 μl of the diluted samples was mixed with 50 μl of Steady Glo in luminometer tubes, the tubes incubated 10 minutes […] then the light produced was read on a Turner TD 20/20 luminometer.

[2] = test system: thermostable luciferase (Luc 146-1H2); test: Residual active thermostable luciferase after reaction with derivative (Steady Glo); format: biochemical
Procedure: as §1

O=C(O)[C@H]1CSC(c2nc3ccc(OCCCl)cc3s2)=N1 [L’in-CEE]
light reading of reaction sample ([1]; substrate 6.25, +Co A & DTT, 0 min): 77.35 | light reading of reaction sample ([1]; substrate 6.25, +Co A & DTT, 20 min): 7.958 | light reading of reaction sample ([1]; substrate 6.25, +Co A & DTT, 40 min): 3.656 | light reading of reaction sample ([1]; substrate 6.25, +Co A & DTT, 60 min): 2.312 | light reading of reaction sample ([1]; substrate 6.25, +Co A & DTT, 90 min): 1.414 | light reading of reaction sample ([1]; substrate 6.25, +Co A & DTT, 120 min): 1.134 | light reading of reaction sample ([1]; substrate 6.25, +Co A, 0 min): 1829 | light reading of reaction sample ([1]; substrate 6.25, +Co A, 20 min): 114 | light reading of reaction sample ([1]; substrate 6.25, +Co A, 40 min): 57.82 | light reading of reaction sample ([1]; substrate 6.25, +Co A, 60 min): 37.53 | light reading of reaction sample ([1]; substrate 6.25, +Co A, 90 min): 24.66 | light reading of reaction sample ([1]; substrate 6.25, +Co A, 120 min): 17.02 | light reading of reaction sample ([1]; substrate 6.25, +DTT, 0 min): 72.52 | light reading of reaction sample ([1]; substrate 6.25, +DTT, 20 min): 5.903 | light reading of reaction sample ([1]; substrate 6.25, +DTT, 40 min): 3.073 | light reading of reaction sample ([1]; substrate 6.25, +DTT, 60 min): 2.089 | light reading of reaction sample ([1]; substrate 6.25, +DTT, 90 min): 1.431 | light reading of reaction sample ([1]; substrate 6.25, +DTT, 120 min): 1.125 | light reading of reaction sample ([1]; substrate 6.25, Alone, 0 min): 121 | light reading of reaction sample ([1]; substrate 6.25, Alone, 20 min): 5.884 | light reading of reaction sample ([1]; substrate 6.25, Alone, 40 min): 3.316 | light reading of reaction sample ([1]; substrate 6.25, Alone, 60 min): 2.352 | light reading of reaction sample ([1]; substrate 6.25, Alone, 90 min): 1.569 | light reading of reaction sample ([1]; substrate 6.25, Alone, 120 min): 1.154 | light reading of reaction sample ([1]; substrate 25, +Co A & DTT, 0 min): 57.98 | light reading of reaction sample ([1]; substrate 25, +Co A & DTT, 20 min): 5.721 | light reading of reaction sample ([1]; substrate 25, +Co A & DTT, 40 min): 3.272 | light reading of reaction sample ([1]; substrate 25, +Co A & DTT, 60 min): 2.192 | light reading of reaction sample ([1]; substrate 25, +Co A & DTT, 90 min): 1.379 | light reading of reaction sample ([1]; substrate 25, +Co A & DTT, 120 min): 1.174 | light reading of reaction sample ([1]; substrate 25, +Co A, 0 min): 489.2 | light reading of reaction sample ([1]; substrate 25, +Co A, 20 min): 45.45 | light reading of reaction sample ([1]; substrate 25, +Co A, 40 min): 25.08 | light reading of reaction sample ([1]; substrate 25, +Co A, 60 min): 16.96 | light reading of reaction sample ([1]; substrate 25, +Co A, 90 min): 11.03 | light reading of reaction sample ([1]; substrate 25, +Co A, 120 min): 7.309 | light reading of reaction sample ([1]; substrate 25, +DTT, 0 min): 56.59 | light reading of reaction sample ([1]; substrate 25, +DTT, 20 min): 3.761 | light reading of reaction sample ([1]; substrate 25, +DTT, 40 min): 2.196 | light reading of reaction sample ([1]; substrate 25, +DTT, 60 min): 1.668 | light reading of reaction sample ([1]; substrate 25, +DTT, 90 min): 1.274 | light reading of reaction sample ([1]; substrate 25, +DTT, 120 min): 1.157 | light reading of reaction sample ([1]; substrate 25, Alone, 0 min): 59.87 | light reading of reaction sample ([1]; substrate 25, Alone, 20 min): 3.176 | light reading of reaction sample ([1]; substrate 25, Alone, 40 min): 1.919 | light reading of reaction sample ([1]; substrate 25, Alone, 60 min): 1.305 | light reading of reaction sample ([1]; substrate 25, Alone, 90 min): 1.178 | light reading of reaction sample ([1]; substrate 25, Alone, 120 min): 1.03 | light reading of reaction sample ([1]; substrate 100, +Co A & DTT, 0 min): 25.41 | light reading of reaction sample ([1]; substrate 100, +Co A & DTT, 20 min): 3.278 | light reading of reaction sample ([1]; substrate 100, +Co A & DTT, 40 min): 2.027 | light reading of reaction sample ([1]; substrate 100, +Co A & DTT, 60 min): 1.666 | light reading of reaction sample ([1]; substrate 100, +Co A & DTT, 90 min): 1.27 | light reading of reaction sample ([1]; substrate 100, +Co A & DTT, 120 min): 1.157 | light reading of reaction sample ([1]; substrate 100, +Co A, 0 min): 97.88 | light reading of reaction sample ([1]; substrate 100, +Co A, 20 min): 10.3 | light reading of reaction sample ([1]; substrate 100, +Co A, 40 min): 7.127 | light reading of reaction sample ([1]; substrate 100, +Co A, 60 min): 5.562 | light reading of reaction sample ([1]; substrate 100, +Co A, 90 min): 3.969 | light reading of reaction sample ([1]; substrate 100, +Co A, 120 min): 2.845 | light reading of reaction sample ([1]; substrate 100, +DTT, 0 min): 22.47 | light reading of reaction sample ([1]; substrate 100, +DTT, 20 min): 2.233 | light reading of reaction sample ([1]; substrate 100, +DTT, 40 min): 1.292 | light reading of reaction sample ([1]; substrate 100, +DTT, 60 min): 1.164 | light reading of reaction sample ([1]; substrate 100, +DTT, 90 min): 1.093 | light reading of reaction sample ([1]; substrate 100, +DTT, 120 min): 0.958 | light reading of reaction sample ([1]; substrate 100, Alone, 0 min): 20.46 | light reading of reaction sample ([1]; substrate 100, Alone, 20 min): 1.18 | light reading of reaction sample ([1]; substrate 100, Alone, 40 min): 0.868 | light reading of reaction sample ([1]; substrate 100, Alone, 60 min): 0.788 | light reading of reaction sample ([1]; substrate 100, Alone, 90 min): 0.627 | light reading of reaction sample ([1]; substrate 100, Alone, 120 min): 0.544 | light value of diluted reaction sample in Steady Glo ([2]; substrate 6.25, +Co A & DTT, sample taken 0 min): 1836 | light value of diluted reaction sample in Steady Glo ([2]; substrate 6.25, +Co A & DTT, sample taken 60 min): 1625 | light value of diluted reaction sample in Steady Glo ([2]; substrate 6.25, +Co A & DTT, sample taken 120 min): 1622 | light value of diluted reaction sample in Steady Glo ([2]; substrate 6.25, +Co A, sample taken 0 min): 1647 | light value of diluted reaction sample in Steady Glo ([2]; substrate 6.25, +Co A, sample taken 60 min): 976.8 | light value of diluted reaction sample in Steady Glo ([2]; substrate 6.25, +Co A, sample taken 120 min): 921.4 | light value of diluted reaction sample in Steady Glo ([2]; substrate 6.25, +DTT, sample taken 0 min): 1631 | light value of diluted reaction sample in Steady Glo ([2]; substrate 6.25, +DTT, sample taken 60 min): 1544 | light value of diluted reaction sample in Steady Glo ([2]; substrate 6.25, +DTT, sample taken 120 min): 1695 | light value of diluted reaction sample in Steady Glo ([2]; substrate 6.25, Alone, sample taken 0 min): 1402 | light value of diluted reaction sample in Steady Glo ([2]; substrate 6.25, Alone, sample taken 60 min): 1158 | light value of diluted reaction sample in Steady Glo ([2]; substrate 6.25, Alone, sample taken 120 min): 1073 | light value of diluted reaction sample in Steady Glo ([2]; substrate 25, +Co A & DTT, sample taken 0 min): 529.6 | light value of diluted reaction sample in Steady Glo ([2]; substrate 25, +Co A & DTT, sample taken 60 min): 1268 | light value of diluted reaction sample in Steady Glo ([2]; substrate 25, +Co A & DTT, sample taken 120 min): 1329 | light value of diluted reaction sample in Steady Glo ([2]; substrate 25, +Co A, sample taken 0 min): 1547 | light value of diluted reaction sample in Steady Glo ([2]; substrate 25, +Co A, sample taken 60 min): 777.5 | light value of diluted reaction sample in Steady Glo ([2]; substrate 25, +Co A, sample taken 120 min): 588.7 | light value of diluted reaction sample in Steady Glo ([2]; substrate 25, +DTT, sample taken 0 min): 1116 | light value of diluted reaction sample in Steady Glo ([2]; substrate 25, +DTT, sample taken 60 min): 1372 | light value of diluted reaction sample in Steady Glo ([2]; substrate 25, +DTT, sample taken 120 min): 1393 | light value of diluted reaction sample in Steady Glo ([2]; substrate 25, Alone, sample taken 0 min): 1345 | light value of diluted reaction sample in Steady Glo ([2]; substrate 25, Alone, sample taken 60 min): 973.4 | light value of diluted reaction sample in Steady Glo ([2]; substrate 25, Alone, sample taken 120 min): 860.3 | light value of diluted reaction sample in Steady Glo ([2]; substrate 100, +Co A & DTT, sample taken 0 min): 1745 | light value of diluted reaction sample in Steady Glo ([2]; substrate 100, +Co A & DTT, sample taken 60 min): 1319 | light value of diluted reaction sample in Steady Glo ([2]; substrate 100, +Co A & DTT, sample taken 120 min): 1343 | light value of diluted reaction sample in Steady Glo ([2]; substrate 100, +Co A, sample taken 0 min): 1127 | light value of diluted reaction sample in Steady Glo ([2]; substrate 100, +Co A, sample taken 60 min): 1055 | light value of diluted reaction sample in Steady Glo ([2]; substrate 100, +Co A, sample taken 120 min): 770.5 | light value of diluted reaction sample in Steady Glo ([2]; substrate 100, +DTT, sample taken 0 min): 1168 | light value of diluted reaction sample in Steady Glo ([2]; substrate 100, +DTT, sample taken 60 min): 501.5 | light value of diluted reaction sample in Steady Glo ([2]; substrate 100, +DTT, sample taken 120 min): 1478 | light value of diluted reaction sample in Steady Glo ([2]; substrate 100, Alone, sample taken 0 min): 1262 | light value of diluted reaction sample in Steady Glo ([2]; substrate 100, Alone, sample taken 60 min): 1203 | light value of diluted reaction sample in Steady Glo ([2]; substrate 100, Alone, sample taken 120 min): 1273
